pIC50: −log10 of the molar value. Where “and” joins values, the source holds several entries; their conditions need not be identical. Equal values may be shown once.
System: 242566-281-R-J2-PDC complex spheroid viability
Test: Anticancer human tumor 242566-281-R-J2-PDC patient-derived pancreatic carcinoma cell line growth inhibition [RAS]
Settings: for viability, T/C: stronger effect = lower value
Source text: RAS pathway inhibitors in Combinations in Complex Spheroids
A high-throughput screen of multi-cell type tumor spheroids was designed to identify active combinations of RAS pathway inhibitors and targeted small molecules. Complex spheroids include a stromal component modeled by human endothelial cells (HUVEC) and fibroblasts modeled by human mesenchymal stem cells (MSCs). The concentration ranges selected for each drug and investigational agent were based upon clinically achievable concentrations if the clinical Cmax of the agent was known.
Compounds. The drugs and investigational agents: abemaciclib (NSC768073), cobimetinib (NSC768068), divarasib (GDC6063, NSC841802), docetaxel (NSC628503), GDC-1971 (RLY-1971, NSC841576), gemcitabine (NSC613327), inavolisib (NSC800729), ipatasertib (NSC767898), KB-0742 (NSC834161), MRTX-1133 (NSC836407), osimertinib (NSC779217), RMC-4630 (NSC839698), RMC-6236 (NSC851965), RMC-6291 (NSC852671), Ro-3306 (NSC812927), sapanisertib (NSC764658), SN-38 (NSC673596), staurosporine (NSC755774), SY5609 (NSC837396), and tovorafenib (DAY101, NSC766906), were obtained from the National Cancer Institute (NCI) Developmental Therapeutics Program Chemical Repository. The FDA-approved anticancer drug set is available from the NCI Developmental Therapeutics Program. […] The stock solutions were prepared in dimethyl sulfoxide (DMSO, Sigma-Aldrich, St. Louis, MO, cat. D2650) at 800-fold the tested concentration and stored at -70 degrees C prior to their use. All drugs and investigational agents were tested over a range starting from a high concentration at or near the clinical Cmax and decreasing in half-log increments. If the clinical Cmax for an agent had not been determined, the highest concentration tested was 10 microM.
Cell Culture. All cells were maintained in an incubator at 37 degrees C and 5% CO2 with 95% humidity. The PDC lines were cultured according to standard operating procedures established by the NCI PDMR. All PDCs were thawed and cultured in Matrigel-coated flasks prepared with a working solution of 1X Ham's F-12 nutrient mix, without supplementation (Invitrogen, Waltham, MA, cat. 11765054), 100 U/mL penicillin-streptomycin (Invitrogen, cat. 15140122), and 2.5% Matrigel (Corning Inc., Corning, NY, cat. 354248) for the first three passages. The 362531-283-R-J2-PDC and 782815-120-R-J1-PDC lines were cultured in 6C/Colon 1B media, which includes advanced DMEM/F-12 (Thermo Fisher Scientific, cat. 12634028), 10 mM HEPES (Thermo Fisher Scientific, cat. 15630080), 1X GlutaMAX supplement (Thermo Fisher Scientific, cat. 35050061), 0.1 mg/mL primocin (InvivoGen, San Diego, CA, cat. ant-pm-2), 10% defined fetal bovine serum, heat inactivated (HyClone Laboratories Inc., Logan, UT, cat. SH30070.03HI), 50% L-WRN conditioned media (ATCC, cat. CRL-3276), 1.25 mM N-Acetyl-L-cysteine (Sigma-Aldrich, cat. A9165), 10 mM nicotinamide (Sigma-Aldrich, cat. N0636), 1X B-27 supplement (Thermo Fisher Scientific, cat. 17504044), 1X N-2 supplement (Thermo Fisher Scientific, cat. 17502048), 50 ng/mL human EGF (Thermo Fisher Scientific, cat. PHG0311), and 10 microM Y-27632 dihydrochloride (Tocris Bioscience, cat. 1254). The K12877-001-R-J1-PDC line was cultured in 6I media, which includes all 6C/Colon 1B media plus 10 ng/mL human FGF-10 (PeproTech, cat. 100-26), 1 ng/mL human FGF-2 (PeproTech, cat. 100-18B), 1 µM prostaglandin E2 (Tocris Bioscience, cat. 2296), […] hydrocortisone (Sigma-Aldrich, cat. H4001), and […] bovine insulin (Sigma-Aldrich, cat. I6634). The K86415-001-R-J1-PDC line was cultured in 6D media, which includes all 6C/Colon 1B media components minus the L-WRN conditioned media. The 485176-168-R4-J1-PDC was cultured in PANC media, which includes all 6C/Colon 1B media plus 100 ng/mL human FGF-10 (PeproTech, cat. 100-26), 500 nM SB-431542 (Selleckchem, cat. S1067), and 10 nM gastrin (Tocris Bioscience, cat. 3006). […]

[1] = compound alone, run of 07/09/2024
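Note: spheroids exposed to compound for 7 days before readout.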
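Throughout, for viability, T/C: 100% = DMSO vehicle control wells.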

| SMILES | viability, T/C (compound 0.0316 µM) | viability, T/C (compound 0.1 µM) | viability, T/C (compound 0.316 µM) | pIC50 (curve of compound) | viability, T/C (compound 1 µM) | IC50 (curve of compound) | other results |
| --- | --- | --- | --- | --- | --- | --- | --- |
| C#Cc1c(F)ccc2cc(O)cc(-c3ncc4c(N5CC6CCC(C5)N6)nc(OCC56CCCN5CC(F)C6)nc4c3F)c12 (stereo not drawn) | 84.1% [middle of 8 runs] | 80.2% [middle of 8 runs] | 71.4% [middle of 8 runs] |  |  |  | viability, T/C (compound 3.16 µM): 53.9% [middle of 8 runs]; viability, T/C (compound 10 µM): 49.6% [middle of 8 runs] |
| C=CC(=O)N1CCN(c2nc(OCC3CCCN3C)nc3c(F)c(-c4nc(N)cc(C)c4C(F)(F)F)c(Cl)cc23)C(C)C1 (stereo not drawn) | 99.2% [middle of 12 runs] | 100% [middle of 12 runs] |  | < 6.00 |  |  | viability, T/C (compound 0.00316 µM): 102% [middle of 12 runs]; pIC50 (compound alone, run of 07/15/2024): < 6.00 |
| C=CC(=O)Nc1cc(Nc2nccc(-c3cn(C)c4ccccc34)n2)c(OC)cc1N(C)CCN(C)C | 90.5% [middle of 4 runs] | 91.2% [middle of 4 runs] |  | < 6.00 |  |  | viability, T/C (compound 0.00316 µM): 105% [middle of 4 runs]; viability, T/C (compound 0.01 µM): 101% [middle of 4 runs] |
| CC(=O)OC12COC1CC(O)C1(C)C(=O)C(O)C3=C(C)C(OC(=O)C(O)C(NC(=O)OC(C)(C)C)c4ccccc4)CC(O)(C(OC(=O)c4ccccc4)C21)C3(C)C (stereo not drawn) | 54.6% [middle of 4 runs] |  | 47.6% [middle of 4 runs] |  | 43.5% [middle of 4 runs] |  | viability, T/C (compound 3.16 µM): 51.3% [middle of 4 runs] |
| CC(C)NCC(C(=O)N1CCN(c2ncnc3c2C(C)CC3O)CC1)c1ccc(Cl)cc1 (stereo not drawn) | 104% [middle of 4 runs] | 106% [middle of 4 runs] | 103% [middle of 4 runs] | < 5.00 | 101% [middle of 4 runs] |  |  |
| CC(C)n1nc(-c2ccc3oc(N)nc3c2)c2c(N)ncnc21 | 63.6% [middle of 4 runs] | 60.3% [middle of 4 runs] |  | 7.29 and < 7.00 and 7.28 |  |  | viability, T/C (compound 0.000316 µM): 104% [middle of 4 runs]; viability, T/C (compound 0.001 µM): 102% [middle of 4 runs]; viability, T/C (compound 0.01 µM): 85.6% [middle of 4 runs] |
| CC(Nc1ccc2c(c1)OCCn1cc(N3C(=O)OCC3C(F)F)nc1-2)C(N)=O (stereo not drawn) | 99.1% [middle of 4 runs] | 99.7% [middle of 4 runs] |  |  | 57.4% [middle of 4 runs] | 1.41 µM [middle of 4 runs] | viability, T/C (compound 3.16 µM): 37.6% [middle of 4 runs]; viability, T/C (compound 10 µM): 28.8% [middle of 4 runs] |
| CC1(C)CCC(Nc2ncc(C(F)(F)F)c(-c3c[nH]c4c(P(C)(C)=O)c(C#N)ccc34)n2)CN1 (stereo not drawn) |  |  |  | < 6.52 |  |  | viability, T/C (compound 0.03 µM): 110% [middle of 4 runs] |
| CC1(O)CCCC1n1c(=O)c(C(F)F)cc2cnc(NC3CCN(S(C)(=O)=O)CC3)nc21 (stereo not drawn) |  |  |  | < 5.00 and 5.12 and 5.06 | 106% [middle of 4 runs] |  | viability, T/C (compound 3.16 µM): 105% and 103% (2×) and 123% |
| CCC(CC)c1cc(NC2CCC(N)C2)n2nccc2n1 (stereo not drawn) | 105% [middle of 4 runs] | 119% [middle of 4 runs] | 105% [middle of 4 runs] |  | 114% [middle of 4 runs] | 4.51 µM [middle of 4 runs] | viability, T/C (compound 10 µM): 2.75% [middle of 4 runs] |
| CCN1CCN(Cc2ccc(Nc3ncc(F)c(-c4cc(F)c5nc(C)n(C(C)C)c5c4)n3)nc2)CC1 | 102% [middle of 4 runs] | 99.1% [middle of 4 runs] |  | < 6.00 |  |  | viability, T/C (compound 0.00316 µM): 102% [middle of 4 runs] |
| CCc1c2c(nc3ccc(O)cc13)-c1cc3c(c(=O)n1C2)COC(=O)[C@]3(O)CC |  |  |  |  |  | 30.9 nM [middle of 4 runs] | viability, T/C (compound 0.003 µM): 97% [middle of 4 runs]; viability, T/C (compound 0.00949 µM): 76% [middle of 4 runs]; viability, T/C (compound 0.03 µM): 49% [middle of 4 runs]; viability, T/C (compound 0.0949 µM): 24.7% [middle of 4 runs]; viability, T/C (compound 0.3 µM): 12.9% [middle of 4 runs] |
| CCn1c(-c2cc(N3CCN(C)CC3)cnc2C(C)OC)c2c3cc(ccc31)-c1csc(n1)CC(NC(=O)C1CC1C)C(=O)N1CCCC(N1)C(=O)OCC(C)(C)C2 (stereo not drawn) |  |  |  |  |  |  | viability, T/C (compound 0.000949 µM): 93.7% [middle of 8 runs]; viability, T/C (compound 0.003 µM): 76.4% [middle of 8 runs]; viability, T/C (compound 0.00949 µM): 49% [middle of 8 runs]; viability, T/C (compound 0.03 µM): 31.3% [middle of 8 runs]; viability, T/C (compound 0.0949 µM): 23.8% [middle of 8 runs]; viability, T/C (compound 0.3 µM): 21.6% [middle of 8 runs]; IC50 [1]: 9.34 nM [middle of 8 runs] |
| CCn1c(-c2cccnc2C(C)OC)c2c3cc(ccc31)N1CCOC(CC(NC(=O)C(C(C)C)N(C)C(=O)C3(F)CCN(C(=O)C#CC(C)(C)N(C)C)CC3)C(=O)N3CCCC(N3)C(=O)OCC(C)(C)C2)C1 (stereo not drawn) |  |  |  |  |  |  | viability, T/C (compound 0.000949 µM): 93.4% [middle of 8 runs]; viability, T/C (compound 0.003 µM): 108% [middle of 8 runs]; viability, T/C (compound 0.00949 µM): 104% [middle of 8 runs]; viability, T/C (compound 0.03 µM): 109% [middle of 8 runs]; viability, T/C (compound 0.0949 µM): 98.3% [middle of 8 runs]; viability, T/C (compound 0.3 µM): 87.6% [middle of 8 runs]; pIC50 [1]: < 6.52 |
| C[C@@H](NC(=O)c1ncnc(N)c1Cl)c1ncc(C(=O)Nc2cc(C(F)(F)F)c(Cl)cn2)s1 | 116% [middle of 4 runs] | 114% [middle of 4 runs] | 110% [middle of 4 runs] | < 5.00 | 118% [middle of 4 runs] |  | viability, T/C (compound 3.16 µM): 106% [middle of 4 runs] |
| Cc1nc(N2CCC3(CC2)COC(C)C3N)c(CO)nc1Sc1ccnc(N)c1Cl (stereo not drawn) | 119% and 98.2% and 102% (2×) |  | 94.2% [middle of 4 runs] | < 5.00 | 85.4% [middle of 4 runs] |  |  |
| NC1c2ccccc2OC12CCN(c1cnc3c(N4CCCc5ncccc54)n[nH]c3n1)CC2 (stereo not drawn) |  |  |  | < 5.00 and 5.48 and 5.47 | 68.9% [middle of 4 runs] |  | viability, T/C (compound 10 µM): 51.8% [middle of 4 runs] |
| Nc1ccn(C2OC(CO)C(O)C2(F)F)c(=O)n1 (stereo not drawn) | 74.9% [middle of 4 runs] | 49.9% [middle of 4 runs] | 23.4% [middle of 4 runs] |  | 15.6% [middle of 4 runs] | 89.6 nM [middle of 4 runs] | viability, T/C (compound 0.00316 µM): 102% [middle of 4 runs]; viability, T/C (compound 0.01 µM): 103% [middle of 4 runs] |
| O=C(c1ccc(F)c(F)c1Nc1ccc(I)cc1F)N1CC(O)([C@@H]2CCCCN2)C1 |  | 64.1% [middle of 4 runs] | 41.3% [middle of 4 runs] |  |  |  |  |

Source: PubChem BioAssay AID2060910 (Molecular Pharmacology Branch, DTP, NCI, 2025)
